For experiment [1], the target named is T1, A3-YFP (Homo sapiens, UniProt P0DMS8).
T1 construct: cDNA encoding the full length human A3 receptor; expressed in transfected cells
T1 sequence (P0DMS8 1-318): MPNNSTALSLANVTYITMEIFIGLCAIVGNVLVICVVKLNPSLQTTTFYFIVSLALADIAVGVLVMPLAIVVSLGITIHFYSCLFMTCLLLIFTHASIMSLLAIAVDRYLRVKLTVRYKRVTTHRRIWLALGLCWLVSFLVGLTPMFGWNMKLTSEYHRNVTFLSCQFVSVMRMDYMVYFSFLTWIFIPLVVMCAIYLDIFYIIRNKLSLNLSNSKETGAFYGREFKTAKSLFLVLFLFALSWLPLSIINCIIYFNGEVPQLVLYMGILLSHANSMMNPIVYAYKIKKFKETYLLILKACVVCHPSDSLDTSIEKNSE
Description: ERK1/2 phosphorylation assay (AlphaScreen SureFire), A3-YFP. It is filed as cell-based. The conditions noted are these: for Emax: read-out: Maximum response (% 10 μM NECA), pERK1/2 assay. The procedure:
(§1) Normal growth medium was replaced with serum-free medium for at least 4 h before analysis. Levels of ERK1/2 phosphorylation were measured using the AlphaScreen SureFire p-ERK assay kit (PerkinElmer). […] Medium was removed from each well and replaced with 40 μL SureFire lysis buffer. After shaking for 5 min, a 1:80:20:120 v v^−1 dilution of AlphaScreen beads : lysate : activation buffer : reaction buffer in a 5.5 μL total volume was transferred to a white opaque 384-well proxiplate in diminished light. After 2 h of incubation in the dark at room temperature, the fluorescence signal was measured with an EnVision plate reader (PerkinElmer) using standard AlphaScreen settings.
(§2) A basal and FSK control was included in each separate concentration-response CRE-SPAP gene transcription assay and cAMP accumulation assay to allow the responses in each cell line to be expressed as an inhibition of FSK-stimulated SPAP production.
Background: Alpha assays give light when donor and acceptor beads are brought close together.

The target in experiment [2] is T2, A3 W243F-YFP (Homo sapiens, UniProt P0DMS8, W243F).
T2 construct: Full length A3 W243F-YFP was excised and subcloned into a native pcDNA3.1 vector; expressed in transfected cells
T2 sequence (P0DMS8 1-318 W243F): T1 sequence (P0DMS8 1-318) with W243F
As to the kind of experiment: Fluorescence-based competition binding assay with CA200645, A3 W243F-YFP. The conditions noted are these: A3 W243F-YFP cells, 25 nM CA200645, 60 min, 37°C. How it is done: (§3) On the day of analysis, normal growth medium was removed and cells washed once with HBSS pre-warmed to 37°C. […] Buffer was then removed from each well, cells washed once in HBSS and fresh HBSS added at room temperature. Plates were immediately imaged using an ImageXpress Ultra confocal plate reader, which captured four central images per well using a Plan Fluor 40× NA0.6 extra-long working distance objective. CA200645 was excited at 635 nm and emission collected through a 640–685 nm band pass filter. Total image intensity was obtained using a multiwave length cell scoring algorithm within MetaXpress software (Molecular Devices).
(§4) Time course experiments were fitted using a one phase association equation which is as follows [drawing 2] where Yo represents the level of internalization at time (t) equal to zero, Plateau is the maximal internalization at infinite time and K is the rate constant in […]. Statistical significance was determined by Student's unpaired t-test or by one-way ANOVA with Dunnett's post hoc analysis and P < 0.05 was considered statistically significant.

The target in experiment [3] is T1, A3-YFP. Description: Fluorescence-based competition binding assay with CA200645, A3-YFP. The conditions noted are these: A3-YFP cells, 25 nM CA200645, 60 min, 37°C. The procedure:
as §3, §4

Experiment [4] addresses T2, A3 W243F-YFP. As to the kind of experiment: ERK1/2 phosphorylation assay (AlphaScreen SureFire), A3 W243F-YFP. It is filed as cell-based. How it is done: as §1, §2
In experiment [5] the target is T3, A3-vYc/β-arrestin2-vYnL (Homo sapiens, UniProt P0DMS8).
T3 construct: cDNA encoding the full length human A3 receptor; expressed in transfected cells; host or cells: CHO-K1 stably expressing β-arrestin2-vYnL, stably co-transfected with A3-vYc
As to the kind of experiment: BiFC of receptor with β-arrestin2 (automated imaging), A3-vYc. Format: cell-based. The conditions noted are these: A3-vYc/β-arrestin2-vYnL cells; for Maximal BiFC (%): percentage of 10 μM NECA in the cell line.

Each structure is given as a SMILES string. Positions count from the first letter of the chain named.

T3 sequence (P32121 whole entry partner, one chain of several): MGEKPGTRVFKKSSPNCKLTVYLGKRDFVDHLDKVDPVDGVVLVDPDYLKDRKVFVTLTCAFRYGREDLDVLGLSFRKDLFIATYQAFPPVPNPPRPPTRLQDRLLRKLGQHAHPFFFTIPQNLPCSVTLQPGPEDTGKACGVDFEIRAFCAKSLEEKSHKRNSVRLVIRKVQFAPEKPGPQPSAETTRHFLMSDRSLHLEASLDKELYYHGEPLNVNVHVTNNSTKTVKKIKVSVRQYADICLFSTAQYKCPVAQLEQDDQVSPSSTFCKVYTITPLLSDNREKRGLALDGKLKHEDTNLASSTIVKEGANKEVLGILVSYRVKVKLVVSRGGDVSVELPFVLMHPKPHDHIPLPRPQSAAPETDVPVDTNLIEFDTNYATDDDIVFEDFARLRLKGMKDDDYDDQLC

As a reminder, the Ki is a measure of affinity in units of concentration, obtained from inhibition or displacement. The low end stands for higher affinity, the high end for lower affinity. In the case of `CCCCC#Cc1nc(NC)c2ncn([C@@H]3O[C@H](CO)[C@@H](O)[C@H]3O)c2n1` [HEMADO, 2-(1-hexynyl)-N-methyladenosine], the EC50 in experiment [1] (A3-YFP cells, 5 min stimulation, read-out: pEC50 (pERK1/2 assay) (converted)) was 1.91 nM; in experiment [4] (A3 W243F-YFP cells, 5 min stimulation, read-out: pEC50 (pERK1/2 assay) (converted)) it was 19.5 nM; in experiment [5] (60 min, read-out: pEC50 (BiFC with β-arrestin2-vYnL) (converted)), 6.46 nM. The Emax in experiment [1] was found to be 120 ± 5.8%; in experiment [4] (read-out: Maximum response (% 10 μM NECA), pERK1/2 assay), 16 ± 3.1%. For the same compound, the Ki in experiment [2] is 45.7 nM; in experiment [3] it was 33.1 nM. In addition, in experiment [5] (10 μM, 2 h), the “% maximal internalization vs. 10 μM NECA at 2 h (BiFC)” value amounted to 84.3 ± 8.2%. The “Maximal BiFC (%)” value in experiment [5] (60 min) came to 72.2 ± 7.1%.
As to `CCNC(=O)[C@H]1O[C@@H](n2cnc3c(N)ncnc32)[C@H](O)[C@@H]1O` [NECA, 5-(N-ethylcarboxamido)adenosine], the Emax in experiment [1] worked out at 100%. Moreover, the “Maximal BiFC (%)” value in experiment [5] (60 min) is reported as 100%.

The record behind these values is PMC4128046, “Effect of a toggle switch mutation in TM6 of the human adenosine A3 receptor on Gi protein-dependent signalling and Gi-independent receptor internalization” (British Journal of Pharmacology, 2014).
